Assay results from US12258425B2, “Peptide compositions and methods of use” (priority 2015, dated 2025).
Where a SMILES comes first, the peptide text is derived from it.

Tests used:
[1] = pH-solubility titration (visual: precipitate, turbidity, viscosity, gel); type: physicochemical
Procedure: Compound 1 obtained as a trihydrochloride salt, as described in Example 1, and was screened for aqueous solubility at different pHs, by carrying out pH titrations according to the following protocol. In some cases Met-12 was run through an identical experimental procedure to determine its solubility pH profile under the same conditions.
Compound 1 (10 mg) was dissolved in water (270-900 ? L) in a 2 mL clear plastic centrifuge tube with vortexing to give a pH ˜2.4 solution. […] This solution was then diluted with the appropriate amount of cosolvent or other excipient (sugar, surfactant etc.) to produce a clear acidic solution of 10 mg of Compound 1 in […] of the test solution at room temperature ([…]). Small aliquots of a basic solution (usually sodium hydroxide 1.0 M or 0.1 M, but sometimes other bases when investigating buffers) were added using a microliter syringe. Between additions the solution was mixed by vortexing, and the solution was inspected visually for precipitates of various types, turbidity, as a likely sign of microprecipitates, and viscosity to detect gel formation. pH measurements were taken at all these observation points. Some experiments titrated from the endogenous low pH to pH 10, but later titrations were not carried much above pH 7, or sometimes even lower.

[2] = rabbit, in vivo
Procedure: (§1) This study was conducted to determine the concentrations of Compound 1 in vitreous humor (VH) and retina tissue following intravitreal injections of male Dutch Belted rabbits. Concentrations were determined in tissues at 24, 72, 168, and 240 hours post-dose of a 50 μL bilateral intravitreal (IVT) dose.
(§2) Test system included the following: • Species/Strain/Gender: Male Dutch Belted Rabbits • Supplier: Covance Research Products, Inc. • Age Range: 4 to 5 months • Weight at Receipt (Range of • Weights): 1.51-1.85 kg • Administration Route: Intravitreal (IVT) injection • Duration of Treatment: Single Dose per eye • Formulation Concentrations: 2.0, 1.0, and 0.5 mg/mL Compound 1 triacetate • Dose Volume: 50 μL per eye
(§3) An intravitreal (IVT) injection ocular dose of 50 μL was administered to the globe of each of Dutch Belted rabbit eye.
(§4) At the respective time points the rabbits were euthanized by intravenous barbiturate overdose, and eyes were enucleated and snap frozen. Vitreous humor and retina were collected from all animals and analyzed for Compound 1 by LC-MS/MS

[3] = rat, in vivo
Procedure: (§5) Concentrations were determined in tissues at 24 (Group 1), and 72 hours (Groups 1 and 2) post-dose of a 5 μL bilateral intravitreal (IVT) dose.
(§6) Test system included the following: • Species/Strain/Gender: Norway Brown Rats • Supplier: Charles River, Inc. • Age Range: 1 to 2 months • Weight at Receipt (Range of • Weights): 165.9-181.2 g • Administration Route: Intravitreal (IVT) injection • Duration of Treatment: Single dose per eye • Formulation Concentrations: 0.06 mg/mL ONL-1204 triacetate • Dose Volume: 5 μL per eye Harvesting of Ocular Tissues
(§7) Rats were euthanized by intravenous barbiturate overdose, and eyes were enucleated and snap frozen. Vitreous humor (VH) and retina were collected from all animals and analyzed for Compound 1 by LC-MS/MS.
(§8) For each VH unknown or control blank: Weigh VH into a homogenization tube. Add 4 times the VH weight (mg) of ACN:water:1 M hydrochloric acid (70:20:10, v/v/v) (μL) to the homogenization tube. Add zirconium oxide beads, 2.8 and 1.4 mm size. Homogenize all samples on Precellys®: 5500 rpm, 3×30 second cycles, and 20 seconds between cycles, at a temperature between −10 to 0° C.
(§9) For each retina unknown or control blank: • Weigh retina tissue into a homogenization tube. • Add 4 times the tissue weight (mg) of ACN:water:1 M hydrochloric acid (70:20:10, v/v/v) (μL) to the homogenization tube. • Add zirconium oxide beads, 1.4 mm size. • Homogenize all samples on Precellys®: 5500 rpm, 3×30 second cycles, and 20 seconds between cycles, at a temperature between −10 to 0° C. Preparation of Standards, Samples, and Blanks Preparation of Calibration Stock and Working Standards
(§10) One hundred (100) μL of each vitreous humor sample with ACN: formic acid (1000:1, v/v) was then aliquoted. One hundred (100) μL of DMSO:water:formic acid (50:40:10) was added to each vitreous humor sample. The samples were vortex mixed then centrifuged for 10 minutes at 14,000 rpm (4° C.). To 50.0 μL supernatant, 100 μL of working internal standard (50,000 ng/mL APi1887 in water) (water for the blank without internal standard), and 150 μL of water were added. The samples were then vortex mixed and transferred to an autosampler plate for analysis.
(§11) In a polypropylene tube, 50 μL of Brown Norway rat unknown homogenate, bovine control blank or calibration standard Bovine homogenate was added. Fifty (50) μL of DMSO:water:formic acid (50:40:10) was added to each sample. The samples were then vortex mixed and centrifuged for 10 minutes at 14,000 rpm (4° C.). Eighty (80) μL of each sample supernatant was then aliquoted to a 96-well autosampler plate. Forty (40) μL of working internal standard (5,000 ng/mL APi1887 in water) (water for the blank without internal standard), and 120 μL of water were added. The samples were then mixed with a multichannel pipette and analyzed.

[4] = in vivo; settings: male, Dutch Belted, rabbit
Procedure: as §1, §2, §3, §4

[5] = in vivo; settings: Brown Norway, rat, 0.3 ug/eye, Mean concentration in rat retina
Procedure: as §5, §6, §7, §8, §9, §10, §11

[6] = Rabbit intravitreal ocular pharmacokinetic study (vitreous humor and retina); settings: IVT in Poloxamer or Polysorbate formulations, 10 day course
Procedure: as §1, §2, §3, §4

[7] = 0.025 mg/eye, Calculated Concentration in vitreous humor
[8] = 0.05 mg/eye, Calculated Concentration in retina
[9] = 0.05 mg/eye, Calculated Concentration in vitreous humor
[10] = 0.05 mg/eye, Mean concentration in retina
[11] = 0.1 mg/eye, Calculated Concentration in retina
[12] = 0.1 mg/eye, Calculated Concentration in vitreous humor
[13] = 0.1 mg/eye, Mean concentration in retina

CC[C@H](C)[C@H](NC(=O)[C@H](Cc1ccc(O)cc1)NC(=O)[C@H](CC(N)=O)NC(=O)[C@@H](NC(=O)[C@H](C)NC(=O)CNC(=O)[C@H](CC(C)C)NC(=O)[C@H](Cc1ccc(O)cc1)NC(=O)[C@@H](NC(=O)[C@H](Cc1cnc[nH]1)NC(=O)[C@@H](N)Cc1cnc[nH]1)[C@@H](C)CC)C(C)C)C(=O)N[C@@H](Cc1ccc(O)cc1)C(N)=O [Compound 1, His-His-Ile-Tyr-Leu-Gly-Ala-Val-Asn-Tyr-Ile-Tyr-NHz] (H-HHIYLGAVNYIY-NH2)
Aqueous solubility (in words) [1]: poor aqueous solubility above pH˜3
Behaviour on standing overnight [1]: the solution gelled, and the pH dropped by about 0.2 units
solubility ([1]; pH 2.4): ≥ 40 mg/mL
Terminal t1/2 in Retina ([2]; male, Dutch Belted): 199 h
Mean concentration in retina ([2]; male, Dutch Belted, 0.025 mg/eye, 168 h): 1440 ng/g
VH AUC0-last of Group 1 (2 mg/mL) relative to Groups 2 and 3 (0.5 mg/mL) [2]: approximate four times greater AUC
Clearance from VH in the first 24 hours [3]: about half the drug cleared the VH
Terminal half-life in VH [3]: on the order of several days
level at 24 h [4, 7]: 22000 ng/mL
level at 168 h [4, 7]: 22300 ng/mL
level at 240 h [4, 7]: 18000 ng/mL
tissue level at time at 168 h ([4]; 0.025 mg/eye, Mean concentration in retina): 912 ng/g
tissue level at time at 72 h [4, 8]: 172 ng/g
tissue level at time at 168 h [4, 8]: 204 ng/g
tissue level at time at 240 h [4, 8]: 109 ng/g
level at 24 h [4, 9]: 44000 ng/mL
level at 72 h [4, 9]: 39600 ng/mL
level at 168 h [4, 9]: 25900 ng/mL
tissue level at time at 24 h [4, 10]: 206 ng/g
tissue level at time at 72 h [4, 10]: 95 ng/g
tissue level at time at 168 h [4, 10]: 51 ng/g
tissue level at time at 240 h [4, 10]: 27.3 ng/g
level at 240 h [4, 11]: 112 ng/mL
tissue level at time at 240 h [4, 11]: 559 ng/g
level at 24 h [4, 12]: 75900 ng/mL
level at 72 h [4, 12]: 125000 ng/mL
level at 168 h [4, 12]: 84800 ng/mL
level at 240 h [4, 12]: 79400 ng/mL
tissue level at time at 24 h [4, 13]: 596 ng/g
tissue level at time at 72 h [4, 13]: 1630 ng/g
tissue level at time at 168 h [4, 13]: 354 ng/g
tissue level at time at 240 h [4, 13]: 490 ng/g
half-life ([4]; Terminal t1/2 in Retina): 168 h
half-life ([4]; t1/2 in VH): > 900 h
tissue level at time at 24 h [5]: 1210 ng/g
tissue level at time at 72 h [5]: 570 ng/g
Irritation / tolerability [6]: no signs of irritation or tolerability issues
